In US20130165368A1, “ANTIMICROBIAL COMPOUNDS” (priority 2010, published 2013):
≈ marks a conversion by molar mass, not a printed value. Read-outs that look alike come from different tables or passages of the source.

Experiments:
Format in all cases: cell-based
Klebsiella pneumoniae = assay: MIC agar dilution, micro-organism 2 (9528); details: Klebsiella pneumoniae 9528
Description: (§1) Throughout the period of testing the microbial strains were subcultured and incubated for 18-20 hours at 37° C. on a weekly basis. Horse blood agar plates were used to sustain the micro-organisms both prior to and throughout testing. The alkoxylated alkanols listed in Table II below were obtained (these are obtainable from Sigma-Aldrich Company Ltd, Dorset, England), each having a GC purity of at least 97%.
(§2) Molar equivalent concentrations were used to allow comparison between compounds of differing molecular mass. Due to weighing difficulties, any compound in solid form was melted in a water bath prior to dilution. To make ten-times strength concentrations, which takes into account agar dilution, 0.0352 mmol of each compound was weighed into plastic universal bottles and 4 mL of sterile distilled water (SDW) was added. To produce a homogenous emulsion the universals were vortexed; once achieved the emulsions were serial diluted by adding 2 mL to 2 mL of SDW.
(§3) Myristyl alcohol and lauryl alcohol were re-weighed and dissolved in 25 μL of the polar solvent 1-methyl-2-pyrrolidone (M6762; Sigma-Aldrich) in sterile glass universals due to an inability to achieve an even suspension. To maintain an even emulsion in the presence of SDW 37.5 μL of the non-ionic detergent Tween 20 (P1379, Sigma-Aldrich) was also added. 3.9375 mL of SDW was added to these, to create a 4 mL volume; they were vortexed and diluted as before.
(§4) For every 100 mL of Isosensitest agar (IST) (CM0471; Oxoid, Basingstoke, England), 3.1 g of the IST powder was added to 100 mL SDW (as per manufacturer's instructions) and sterilised for 15 minutes at 121° C. Once sterilised, the molten agar was cooled to 50° C. in a water-bath. Subsequently 4.8 g of CCEY powder (BC2160; Bioconnections, Wetherby, England), also known as Brazier's medium, was added to 100 mL SDW for every 100 mL of agar needed. This was then sterilised for 15 minutes at 121° C. Once sterilised the molten agar was cooled to 50° C. in a water-bath and 4 mL of egg-yolk emulsion (S2073; TCS Biosciences Ltd, Buckingham, United Kingdom) and 1 mL of lysed defibrinated horse blood (HB035; TCS Biosciences Ltd, Buckingham, United Kingdom) were also added for every 100 mL needed. Horse blood lysis is achieved by dilution to half concentration with SDW; when fully lysed the mixture will turn dark red in colour.
(§5) 18 mL agar was added to each universal and then poured into sterile Petri dishes. This step creates a 1/10 dilution resulting in agar plates of the required strength. Control plates for each set of strains were created by adding 18 mL of agar to 2 mL of SDW.
(§6) Suspensions of each bacterial species were prepared with a density equal to that of a 0.5 McFarland standard using a densitometer. All suspensions were made using sterile distilled water and fresh 18-20 hour cultures. As a 0.5 McFarland standard contains 1.5×10^8 CFU/mL and the multipoint inoculators applies 1 μL spots of liquid, each bacterial suspension was diluted 1/15 (20 μL suspension to 280 μL sterile distilled water).
(§7) Bacterial suspensions were prepared from fresh 18-24 hour cultures as previously described. 1 μL of each strain was inoculated onto all 100 agar plates containing a different chemical concentration and the 2 control plates. This was done using a multipoint inoculator which inoculates 20 strains per plate. All plates were incubated for 22 hours at 37° C. in aerobic conditions.
(§8) Each plate was examined for bacterial growth after 22 and 48 hours, with each being incubated in between examinations. A positive result was recorded as growth of ≧10 colonies. A negative result was recorded as growth of <10 colonies as this is equivalent to 99.9% inhibition. The lowest concentration of chemical that inhibited growth was recorded as the MIC. The results are recorded in Table IV below, where the numbers are quoted in mmol/L.
(§9) Further experiments have also been conducted to determine the MIC of a number of other compositions as follows. […]

Pseudomonas aeruginosa = assay: MIC agar dilution, micro-organism 7 (10662); details: Pseudomonas aeruginosa 10662
Description: as §1, §2, §3, §4, §5, §6, §7, §8, §9

Staphylococcus aureus = assay: MIC agar dilution, micro-organism 13 (6571); details: Staphylococcus aureus 6571
In short: (§10)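 Agar dilution in Isosensitest/CCEY agar with egg yolk and lysed horse blood; compounds as aqueous emulsions (myristyl and lauryl alcohol with 1-methyl-2-pyrrolidone and Tween 20). 1 µL spots of 1/15-diluted 0.5 McFarland suspensions, 37 °C aerobic, read at 22 and 48 h; MIC (mmol/L) is lowest concentration giving <10 colonies.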

Bacillus subtilis = assay: MIC agar dilution, micro-organism 18 (9372); details: Bacillus subtilis 9372
In short: as §10

[1] = tested on: Enterococcus faecalis (VRE) MB 1969; assay: MIC agar dilution, VRE strain 27
Description: as §2, §4, §5, §6, §7, §8
(§11) Given the positive performance of the ethoxylates of lauryl alcohol in reducing the MIC for a number of the micro-organisms tested, further MIC testing of Laureth-1 [C12E1] through to Laureth-8 [C12E8] was conducted on each of the following: • 10 strains of vancomycin-resistant enterococci (VRE)—listed in Table V below; and • 20 strains of methicillin-resistant Staphylococcus aureus (MRSA)—listed in Table VI.
(§12) The alkanol, alkanol derivatives, agar plates, and inocula were all prepared in the same way as described above.
(§13) The plates were examined in the same manner as described above and the results are recorded in Table VII below, where the numbers are quoted in mmol/L.

MRSA BEL 97598 = assay: MIC agar dilution, MRSA strain 34; details: Staphylococcus aureus
Description: as §2, §4, §5, §6, §7, §8, §11, §12, §13

[2] = tested on: MRSA GER 131/98 (Sger Iidc); assay: MIC agar dilution, MRSA strain 35; details: Staphylococcus aureus
Description: as §2, §4, §5, §6, §7, §8, §11, §12, §13

MRSA FRA 920 = assay: MIC agar dilution, MRSA strain 38; details: Staphylococcus aureus
Description: as §2, §4, §5, §6, §7, §8, §11, §12, §13

MRSA EMRSA 15 1729/98 = assay: MIC agar dilution, MRSA strain 42; details: Staphylococcus aureus
Description: as §2, §4, §5, §6, §7, §8, §11, §12, §13

MRSA EMRSA 15 1758/98 = assay: MIC agar dilution, MRSA strain 43; details: Staphylococcus aureus
Description: as §2, §4, §5, §6, §7, §8, §11, §12, §13

[3] = tested on: vancomycin-resistant enterococci (VRE); assay: MIC agar dilution, summary over 10 VRE strains; details: Enterococcus; most, if not all, of the VRE samples
Description: as §11, §12, §13

[4] = Staphylococcus aureus, 22 h, 22 hrs, read-out: MIC
[5] = Staphylococcus aureus, 48 h, 48 hrs, read-out: MIC

| Compound | MIC (Staphylococcus aureus; [4]) [µM] | MIC (Staphylococcus aureus; [5]) [µM] | MIC (Bacillus subtilis; 22 hrs, read-out: MIC) [µM] | MIC (Bacillus subtilis; 48 hrs, read-out: MIC) [µM] | MIC ([1]; 22 hrs) [µM] | MIC ([1]; 48 hrs) [µM] | MIC (MRSA BEL 97598; 22 hrs) [µM] | MIC (MRSA BEL 97598; 48 hrs) [µM] | MIC ([2]; 22 hrs) [µM] | MIC ([2]; 48 hrs) [µM] | MIC (MRSA FRA 920; 22 hrs) [µM] | MIC (MRSA FRA 920; 48 hrs) [µM] | MIC (MRSA EMRSA 15 1729/98; 22 hrs) [µM] | MIC (MRSA EMRSA 15 1729/98; 48 hrs) [µM] | MIC (MRSA EMRSA 15 1758/98; 22 hrs) [µM] | MIC (MRSA EMRSA 15 1758/98; 48 hrs) [µM] | MIC [3] [µM] | further results |
| --- | --- | --- | --- | --- | --- | --- | --- | --- | --- | --- | --- | --- | --- | --- | --- | --- | --- | --- |
| CCCCCCCCCCCCCCCCO [C0, 1-Hexadecanol, reference compound] | > 880 | > 880 | > 880 | > 880 | – | – | – | – | – | – | – | – | – | – | – | – | – | MIC (Klebsiella pneumoniae; 22 hrs, read-out: MIC): 880 µM (≈ 213 µg/mL); MIC (Klebsiella pneumoniae; 48 hrs, read-out: MIC): 880 µM (≈ 213 µg/mL); MIC (Pseudomonas aeruginosa; 22 hrs, read-out: MIC): > 880 µM; MIC (Pseudomonas aeruginosa; 48 hrs, read-out: MIC): > 880 µM |
| CCCCCCCCCCCCCOCCOCCOCCOCCOCCOCCO [C13E6, polyoxyethylene (6) tridecyl alcohol] | – | – | – | – | – | – | – | – | – | – | – | – | – | – | – | – | – | MIC (Klebsiella pneumoniae; 22 hrs): >880 µM; MIC (Klebsiella pneumoniae; 48 hrs): >880 µM; MIC (Pseudomonas aeruginosa; 22 hrs): >880 µM; MIC (Pseudomonas aeruginosa; 48 hrs): >880 µM; MIC (Staphylococcus aureus; 22 hrs): 110 µM (≈ 51.1 µg/mL); MIC (Staphylococcus aureus; 48 hrs): 110 µM (≈ 51.1 µg/mL); MIC (Bacillus subtilis; 22 hrs): 110 µM (≈ 51.1 µg/mL); MIC (Bacillus subtilis; 48 hrs): 110 µM (≈ 51.1 µg/mL) |
| CCCCCCCCCCCCOCCO [L1, Ethylene Glycol Monododecyl Ether] | 220 (≈ 50.7 µg/mL) | 220 (≈ 50.7 µg/mL) | 440 (≈ 101 µg/mL) | 440 (≈ 101 µg/mL) | 220 (≈ 50.7 µg/mL) | 220 (≈ 50.7 µg/mL) | 220 (≈ 50.7 µg/mL) | 220 (≈ 50.7 µg/mL) | 220 (≈ 50.7 µg/mL) | 220 (≈ 50.7 µg/mL) | 220 (≈ 50.7 µg/mL) | 220 (≈ 50.7 µg/mL) | 220 (≈ 50.7 µg/mL) | 220 (≈ 50.7 µg/mL) | 220 (≈ 50.7 µg/mL) | 220 (≈ 50.7 µg/mL) | ≤ 440 | – |
| CCCCCCCCCCCCOCCOCCO [L2, Diethylene Glycol Monododecyl Ether] | 110 (≈ 30.2 µg/mL) | 110 (≈ 30.2 µg/mL) | 110 (≈ 30.2 µg/mL) | 220 (≈ 60.4 µg/mL) | 220 (≈ 60.4 µg/mL) | 220 (≈ 60.4 µg/mL) | 110 (≈ 30.2 µg/mL) | 220 (≈ 60.4 µg/mL) | 220 (≈ 60.4 µg/mL) | 220 (≈ 60.4 µg/mL) | 110 (≈ 30.2 µg/mL) | 110 (≈ 30.2 µg/mL) | 110 (≈ 30.2 µg/mL) | 110 (≈ 30.2 µg/mL) | 110 (≈ 30.2 µg/mL) | 110 (≈ 30.2 µg/mL) | ≤ 440 | – |
| CCCCCCCCCCCCOCCOCCOCCO [L3, Triethylene Glycol Monododecyl Ether] | ≤ 50 | ≤ 50 | 110 (≈ 35 µg/mL) | 110 (≈ 35 µg/mL) | 440 (≈ 140 µg/mL) | 440 (≈ 140 µg/mL) | 110 (≈ 35 µg/mL) | 110 (≈ 35 µg/mL) | 110 (≈ 35 µg/mL) | 110 (≈ 35 µg/mL) | 55 (≈ 17.5 µg/mL) | 55 (≈ 17.5 µg/mL) | 110 (≈ 35 µg/mL) | 110 (≈ 35 µg/mL) | 55 (≈ 17.5 µg/mL) | 110 (≈ 35 µg/mL) | ≤ 440 | – |
